Laboratory results: ChEMBL document CHEMBL4130359, “Indazole-based ligands for estrogen-related receptor α as potential anti-diabetic agents” (Eur J Med Chem, 2017)

How the values were obtained:
Rattus norvegicus [1] = experiment: Toxicity in Zucker rat sub-chronic fa/fa prediabetic model assessed as body weight at 10 mg/kg, po qd for 29 days measured on day 29 post last dose (reference value: 533 +/- 10 g); type: organism-based; conditions: in vivo, 696 h
Rattus norvegicus [2] = experiment: Toxicity in Zucker rat sub-chronic fa/fa prediabetic model assessed as change in body weight at 10 mg/kg, po qd for 29 days measured on day 1 to 29 during compound dosing (reference value: 140 +/- 7 g); type: organism-based; conditions: in vivo, 696 h
Rattus norvegicus [3] = experiment: Toxicity in Zucker rat sub-chronic fa/fa prediabetic model assessed as food intake at 10 mg/kg, po qd for 29 days measured on day 1 to 29 during compound dosing (reference value: 969 +/- 18 g); type: organism-based; conditions: in vivo, 696 h
Rattus norvegicus [4] = experiment: Toxicity in Zucker rat sub-chronic fa/fa prediabetic model assessed as epididymal white adipose tissue weight at 10 mg/kg, po qd for 31 days measured on day 32 (reference value: 13.9 +/- 0.6 g); type: organism-based; conditions: in vivo, 744 h
Rattus norvegicus [5] = experiment: Toxicity in Zucker rat sub-chronic fa/fa prediabetic model assessed as brown adipose tissue weight at 10 mg/kg, po qd for 31 days measured on day 32 (reference value: 2.1 +/- 0.3 g); type: organism-based; conditions: in vivo, 744 h
Rattus norvegicus [6] = experiment: Toxicity in Zucker rat sub-chronic fa/fa prediabetic model assessed as liver weight at 10 mg/kg, po qd for 31 days measured on day 32 (reference value: 28 +/- 1.6 g); type: organism-based; conditions: in vivo, 744 h
Rattus norvegicus [7] = experiment: Toxicity in Zucker rat sub-chronic fa/fa prediabetic model assessed as heart weight at 10 mg/kg, po qd for 31 days measured on day 32 (reference value: 1.19 +/- 0.04 g); type: organism-based; conditions: in vivo, 744 h
Rattus norvegicus [8] = experiment: Toxicity in Zucker rat sub-chronic fa/fa prediabetic model assessed as triglyceride level per gram liver at 10 mg/kg, po qd for 31 days measured on day 32 (reference value: 163.4 +/- 8.3 mg); type: organism-based; conditions: in vivo, 744 h
Rattus norvegicus [9] = experiment: Toxicity in Zucker rat sub-chronic fa/fa prediabetic model assessed as insulin level per gram pancreas at 10 mg/kg, po qd for 31 days measured on day 32 (reference value: 55.2 +/- 5.5 ug); type: organism-based; conditions: in vivo, 744 h
Rattus norvegicus [10] = experiment: Toxicity in Zucker rat sub-chronic fa/fa prediabetic model assessed as serum triglyceride level at 10 mg/kg, po qd for 31 days measured on day 32 (reference value: 1382 +/- 268 mg/dl); type: organism-based; conditions: in vivo, 744 h
Rattus norvegicus [11] = experiment: Toxicity in Zucker rat sub-chronic fa/fa prediabetic model assessed as serum cholesterol level at 10 mg/kg, po qd for 31 days measured on day 32 (reference value: 295 +/- 91 mg/dl); type: organism-based; conditions: in vivo, 744 h
Rattus norvegicus [12] = experiment: Toxicity in Zucker rat sub-chronic fa/fa prediabetic model assessed as serum ALT level at 10 mg/kg, po qd for 31 days measured on day 32 (reference value: 151 +/- 23 U/L); type: organism-based; conditions: in vivo, 744 h
Rattus norvegicus [13] = experiment: Toxicity in Zucker rat sub-chronic fa/fa prediabetic model assessed as serum AST level at 10 mg/kg, po qd for 31 days measured on day 32 (reference value: 187 +/- 37 U/L); type: organism-based; conditions: in vivo, 744 h
Rattus norvegicus [14] = experiment: Toxicity in Zucker rat sub-chronic fa/fa prediabetic model assessed as serum BUN level at 10 mg/kg, po qd for 31 days measured on day 32 (reference value: 28.3 +/- […]); type: organism-based; conditions: in vivo, 744 h
Rattus norvegicus [15] = experiment: Toxicity in Zucker rat sub-chronic fa/fa prediabetic model assessed as serum creatinine level at 10 mg/kg, po qd for 31 days measured on day 32 (reference value: 0.71 +/- 0.07 mg/dl); type: organism-based; conditions: in vivo, 744 h
Rattus norvegicus [16] = experiment: Toxicity in […] chronic ob/ob model assessed as body weight at 10 mg/kg, po qd for 28 days measured on day 28 post last dose (reference value: 47.3 +/- 1.06 g); type: organism-based; conditions: in vivo, 672 h
Rattus norvegicus [17] = experiment: Toxicity in […] chronic ob/ob model assessed as change in body weight at 10 mg/kg, po qd for 28 days measured on day 1 to 28 during compound dosing (reference value: 9.9 +/- 1.27 g); type: organism-based; conditions: in vivo, 672 h
Rattus norvegicus [18] = experiment: Toxicity in […] chronic ob/ob model assessed as food intake at 10 mg/kg, po qd for 28 days measured on day 1 to 28 during compound dosing (reference value: 170.6 +/- 3 g); type: organism-based; conditions: in vivo, 672 h
Rattus norvegicus [19] = experiment: Toxicity in […] model assessed as liver weight at 10 mg/kg, po qd for 31 days measured on day 32 (reference value: 2.77 +/- 0.16 g); type: organism-based; conditions: in vivo, 744 h
Rattus norvegicus [20] = experiment: Toxicity in […] chronic ob/ob model assessed as epididymal white adipose tissue weight at 10 mg/kg, po qd for 31 days measured on day 32 (reference value: 3.92 +/- 0.14 g); type: organism-based; conditions: in vivo, 744 h
Rattus norvegicus [21] = experiment: Toxicity in […] chronic ob/ob model assessed as brown adipose tissue weight at 10 mg/kg, po qd for 31 days measured on day 32 (reference value: 0.59 +/- 0.05 g); type: organism-based; conditions: in vivo, 744 h
Rattus norvegicus [22] = experiment: Toxicity in […] chronic ob/ob model assessed as serum triglyceride level at 10 mg/kg, po qd for 31 days measured on day 32 (reference value: 329 +/- 36 mg/dl); type: organism-based; conditions: in vivo, 744 h
Rattus norvegicus [23] = experiment: Toxicity in […] model assessed as serum cholesterol level at 10 mg/kg, po qd for 31 days measured on day 32 (reference value: 195 +/- 5.5 mg/dl); type: organism-based; conditions: in vivo, 744 h
Rattus norvegicus [24] = experiment: Toxicity in […] model assessed as serum ALT level at 10 mg/kg, po qd for 31 days measured on day 32 (reference value: 127 +/- 9 U/L); type: organism-based; conditions: in vivo, 744 h
Rattus norvegicus [25] = experiment: Toxicity in […] model assessed as serum AST level at 10 mg/kg, po qd for 31 days measured on day 32 (reference value: 180 +/- 26 U/L); type: organism-based; conditions: in vivo, 744 h
Rattus norvegicus [26] = experiment: Toxicity in […] model assessed as serum BUN level at 10 mg/kg, po qd for 31 days measured on day 32 (reference value: 28.3 +/- […]); type: organism-based; conditions: in vivo, 744 h
Rattus norvegicus [27] = experiment: Toxicity in […] model assessed as serum creatinine level at 10 mg/kg, po qd for 31 days measured on day 32 (reference value: 0.55 +/- 0.018 mg/dl); type: organism-based; conditions: in vivo, 744 h
Rattus norvegicus [28] = experiment: Antidiabetic activity in […] chronic ob/ob model assessed as increase in plasma adiponectin level at 10 mg/kg, po qd for 31 days measured on day 32 by ELISA relative to control; type: functional

CN(CCOc1ccc(CC2SC(=O)NC2=O)cc1)c1ccccn1 (stereo not drawn) [ROSIGLITAZONE] gave an Activity (Rattus norvegicus [1]) of 617 g, an Activity (Rattus norvegicus [2]) of 213 g and an Activity (Rattus norvegicus [3]) of 1248 g. For the same molecule, the Activity (Rattus norvegicus [4]) was 22.7 g, the Activity (Rattus norvegicus [5]) was 7.6 g and the Activity (Rattus norvegicus [6]) was 20.9 g. For the same molecule, the Activity (Rattus norvegicus [7]) was 1.37 g, the Activity (Rattus norvegicus [8]) was 102.5 mg and the Activity (Rattus norvegicus [9]) was 90.7 µg. The Activity (Rattus norvegicus [10]) was 195 mg/dL, the Activity (Rattus norvegicus [11]) was 141 mg/dL and the Activity (Rattus norvegicus [12]) was 136 U/L. For the same molecule, the Activity (Rattus norvegicus [13]) was 147 U/L, the Activity (Rattus norvegicus [14]) was 27.2 mg/dL and the Activity (Rattus norvegicus [15]) was 0.54 mg/dL. It also gave an Activity (Rattus norvegicus [16]) of 50.5 g, an Activity (Rattus norvegicus [17]) of 13 g and an Activity (Rattus norvegicus [18]) of 157.3 g. For the same molecule, the Activity (Rattus norvegicus [19]) was 3.93 g, the Activity (Rattus norvegicus [20]) was 3.32 g and the Activity (Rattus norvegicus [21]) was 1.26 g. The Activity (Rattus norvegicus [22]) was 77 mg/dL, the Activity (Rattus norvegicus [23]) was 184 mg/dL and the Activity (Rattus norvegicus [24]) was 366 U/L. For the same molecule, the Activity (Rattus norvegicus [25]) was 364 U/L, the Activity (Rattus norvegicus [26]) was 33.1 mg/dL and the Activity (Rattus norvegicus [27]) was 0.41 mg/dL. For the same molecule, the “fold change (FC)” value (Rattus norvegicus [28]) was 2.6.
